Source: PubChem BioAssay AID330 (DTP/NCI, 2004)
Values joined by “and” are separate entries in the source; they are usually repeats but may differ in a detail not shown here. Equal values may be shown once. Inconclusive results and toxic doses are left out. How the source made its calls: active means survival T/C of 150% or more; inactive means T/C below 125% in these data. Bridge positions count the residues as written; N and C are the ends. Peptide text beside a SMILES is read from it.

Tested on: P388 leukemia ip, CD2F1 mice, survival T/C
Test: NCI In Vivo Anticancer Drug Screen. Data for tumor model P388 Leukemia (intraperitoneal) in CD2F1 (CDF1) mice
Conditions: endpoint: median survival time, higher = longer survival
Procedure, shortened: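 Mice carrying the transplanted tumor received test compound or vehicle. Survival was recorded in each group, and the value is the treated-group measurement divided by that of the vehicle-treated control group.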

[1] = dose: 50.0 mg/kg/injection, schedule: Q01DX009 (ip), vehicle: Klucel (hydroxypropylcellulose) (HPC)
[2] = dose: 100.0 mg/kg/injection, schedule: Q01DX009 (ip), vehicle: Klucel (hydroxypropylcellulose) (HPC)
[3] = dose: 100.0 mg/kg/injection, schedule: Q01DX001 (ip), vehicle: Klucel (hydroxypropylcellulose) (HPC)
[4] = dose: 200.0 mg/kg/injection, schedule: Q01DX001 (ip), vehicle: Klucel (hydroxypropylcellulose) (HPC)
[5] = dose: 50.0 mg/kg/injection, schedule: Q01DX005 (ip), vehicle: Klucel (hydroxypropylcellulose) (HPC)
[6] = dose: 100.0 mg/kg/injection, schedule: Q01DX005 (ip), vehicle: Klucel (hydroxypropylcellulose) (HPC)
[7] = dose: 200.0 mg/kg/injection, schedule: Q01DX005 (ip), vehicle: Klucel (hydroxypropylcellulose) (HPC)
[8] = dose: 50.0 mg/kg/injection, schedule: Q01DX009 (ip), vehicle: saline with Tween-80
[9] = dose: 200.0 mg/kg/injection, schedule: Q01DX009 (ip), vehicle: saline with Tween-80

Measured: T/C

CCCCCCCCCC1(CC(=O)OCC)SCCN1C(N)=O (stereo not drawn)
inactive: [1] 113 % of control | [2] 107 % of control | dose: 200.0 mg/kg/injection, schedule: Q01DX009 (ip), vehicle: Klucel (hydroxypropylcellulose) (HPC) 115 % of control

O=c1[nH]cc(N=Cc2cccc3c2OCO3)c(=O)[nH]1
inactive: dose: 100.0 mg/kg/injection, schedule: Q01DX001 (ip), vehicle: suspension in saline 99 % of control | dose: 200.0 mg/kg/injection, schedule: Q01DX001 (ip), vehicle: suspension in saline 86 % of control

O=S1(=O)Cc2ccccc21
inactive: [3] 92 % of control | [4] 98 % of control

CN1CCN(CCCN2c3ccccc3Sc3cc(N4c5ccccc5Sc5ccc(C(F)(F)F)cc54)c(C(F)(F)F)cc32)CC1
inactive: dose: 100.0 mg/kg/injection, schedule: Q04DX003 (ip), vehicle: Klucel (hydroxypropylcellulose) (HPC) 95 % of control | dose: 200.0 mg/kg/injection, schedule: Q04DX003 (ip), vehicle: Klucel (hydroxypropylcellulose) (HPC) 95 % of control | dose: 400.0 mg/kg/injection, schedule: Q04DX003 (ip), vehicle: Klucel (hydroxypropylcellulose) (HPC) 107 % of control

N#CC(c1cc2c(cc1Br)OCO2)N1CCCC1 (stereo not drawn)
inactive: [3] 100 % of control | [4] 101 % of control | dose: 400.0 mg/kg/injection, schedule: Q01DX001 (ip), vehicle: Klucel (hydroxypropylcellulose) (HPC) 99 % of control

COc1ccc(C2=Nn3c(nc(N)nc3=N)SC2)cc1
inactive: dose: 25.0 mg/kg/injection, schedule: Q01DX005 (ip), vehicle: saline with Tween-80 113 % of control | dose: 50.0 mg/kg/injection, schedule: Q01DX005 (ip), vehicle: saline with Tween-80 100 % of control | dose: 100.0 mg/kg/injection, schedule: Q01DX005 (ip), vehicle: saline with Tween-80 96 % of control

Cc1cc(=O)c(C(=O)NC=O)c(C)o1
inactive: [5] 99 % of control | [6] 101 % of control | [7] 117 % of control

CN(C)CC1CC1N1c2ccccc2Sc2ccc(Cl)cc21 (stereo not drawn)
inactive: dose: 25.0 mg/kg/injection, schedule: Q01DX009 (ip), vehicle: Klucel (hydroxypropylcellulose) (HPC) 99 % of control | [1] 101 % of control and 112 % of control | [2] 101 % of control and 112 % of control

C(=C\c1ccccc1)/c1ccccc1
inactive: dose: 6.25 mg/kg/injection, schedule: Q01DX005 (ip), vehicle: saline 100 % of control | dose: 12.5 mg/kg/injection, schedule: Q01DX005 (ip), vehicle: saline 109 % of control | dose: 25.0 mg/kg/injection, schedule: Q01DX005 (ip), vehicle: saline 94 % of control

Cc1nc(N)c2[nH]cnc2n1
inactive: [5] 99 % of control | [6] 100 % of control | [7] 99 % of control

CCCCC(C)(CCN)CCCC
inactive: dose: 25.0 mg/kg/injection, schedule: Q01DX009 (ip), vehicle: suspension in saline 103 % of control | dose: 50.0 mg/kg/injection, schedule: Q01DX009 (ip), vehicle: suspension in saline 105 % of control | dose: 100.0 mg/kg/injection, schedule: Q01DX009 (ip), vehicle: suspension in saline 106 % of control

Cc1ccc(NC(=O)NNC(=O)CNC(=O)Nc2n[nH]c(=S)s2)c(C)c1
inactive: [8] 92 % of control | dose: 100.0 mg/kg/injection, schedule: Q01DX009 (ip), vehicle: saline with Tween-80 86 % of control | [9] 91 % of control

c1ccc2sc(SCCCCCCCCCCCCSc3nc4ccccc4s3)nc2c1
inactive: dose: 50.0 mg/kg/injection, schedule: Q01DX005 (ip), vehicle: Klucel + Tween-80 98 % of control | dose: 100.0 mg/kg/injection, schedule: Q01DX005 (ip), vehicle: Klucel + Tween-80 94 % of control | dose: 200.0 mg/kg/injection, schedule: Q01DX005 (ip), vehicle: Klucel + Tween-80 96 % of control

[Cl][Pd][Cl].[NH-]C1CCCC2CCC[N-]C12 (stereo not drawn)
inactive: dose: 12.5 mg/kg/injection, schedule: Q04DX002 (ip), vehicle: saline with Tween-80 104 % of control | dose: 25.0 mg/kg/injection, schedule: Q04DX002 (ip), vehicle: saline with Tween-80 110 % of control | dose: 50.0 mg/kg/injection, schedule: Q04DX002 (ip), vehicle: saline with Tween-80 104 % of control

N#CC1(C#N)C2CCCCC21 (stereo not drawn)
inactive: dose: 3.75 mg/kg/injection, schedule: Q01DX005 (ip), vehicle: saline with Tween-80 107 % of control | dose: 7.5 mg/kg/injection, schedule: Q01DX005 (ip), vehicle: saline with Tween-80 100 % of control | dose: 15.0 mg/kg/injection, schedule: Q01DX005 (ip), vehicle: saline with Tween-80 96 % of control

CSc1c(C#N)c(N)nn1-c1ccccn1
inactive: dose: 100.0 mg/kg/injection, schedule: Q04DX002 (ip), vehicle: saline with Tween-80 100 % of control | dose: 200.0 mg/kg/injection, schedule: Q04DX002 (ip), vehicle: saline with Tween-80 98 % of control | dose: 400.0 mg/kg/injection, schedule: Q04DX002 (ip), vehicle: saline with Tween-80 99 % of control

COc1c2c(c3c(c1OC)CN(CC(c1ccccc1)c1ccccc1)CC3)CCC2
inactive: dose: 100.0 mg/kg/injection, schedule: Q04DX002 (ip), vehicle: saline 101 % of control | dose: 200.0 mg/kg/injection, schedule: Q04DX002 (ip), vehicle: saline 103 % of control | dose: 400.0 mg/kg/injection, schedule: Q04DX002 (ip), vehicle: saline 103 % of control

CN1C2=CCCCC2(C)c2ccccc21 (stereo not drawn)
inactive: dose: 60.0 mg/kg/injection, schedule: Q01DX005 (ip), vehicle: saline 105 % of control | dose: 120.0 mg/kg/injection, schedule: Q01DX005 (ip), vehicle: saline 115 % of control | dose: 240.0 mg/kg/injection, schedule: Q01DX005 (ip), vehicle: saline 118 % of control

Cn1nc(N)c2ncc(-c3ccc(Cl)cc3)nc21
inactive: dose: 100.0 mg/kg/injection, schedule: Q04DX003 (ip), vehicle: saline with Tween-80 90 % of control | dose: 200.0 mg/kg/injection, schedule: Q04DX003 (ip), vehicle: saline with Tween-80 95 % of control

CN1C2=CC3(OC2C(C)(C)c2ccccc21)N(C)c1ccccc1C3(C)C (stereo not drawn)
inactive: dose: 60.0 mg/kg/injection, schedule: Q01DX005 (ip), vehicle: Klucel (hydroxypropylcellulose) (HPC) 93 % of control | dose: 120.0 mg/kg/injection, schedule: Q01DX005 (ip), vehicle: Klucel (hydroxypropylcellulose) (HPC) 92 % of control | dose: 240.0 mg/kg/injection, schedule: Q01DX005 (ip), vehicle: Klucel (hydroxypropylcellulose) (HPC) 93 % of control

CCC(C)C1NC(=O)C(CC(C)C)NC(=O)C(C(C)C)NC(=O)C2CSSCC(NC1=O)C(=O)N2 (stereo not drawn) (cyclo(CCVLI); disulfide 1-2; configuration not given here)
inactive: dose: 31.25 micrograms/kg/injection, schedule: Q01DX009 (ip), vehicle: Klucel (hydroxypropylcellulose) (HPC) 106 % of control | dose: 62.5 micrograms/kg/injection, schedule: Q01DX009 (ip), vehicle: Klucel (hydroxypropylcellulose) (HPC) 100 % of control | dose: 125.0 micrograms/kg/injection, schedule: Q01DX009 (ip), vehicle: Klucel (hydroxypropylcellulose) (HPC) 94 % of control | dose: 250.0 micrograms/kg/injection, schedule: Q01DX009 (ip), vehicle: Klucel (hydroxypropylcellulose) (HPC) 97 % of control | dose: 500.0 micrograms/kg/injection, schedule: Q01DX009 (ip), vehicle: Klucel (hydroxypropylcellulose) (HPC) 99 % of control | dose: 1000.0 micrograms/kg/injection, schedule: Q01DX009 (ip), vehicle: Klucel (hydroxypropylcellulose) (HPC) 97 % of control

CC(CO)CCC1OC2CC3C4CC=C5C=CCCC5(C)C4CCC3(C)C2C1C (stereo not drawn)
inactive: dose: 2.25 mg/kg/injection, schedule: Q01DX005 (ip), vehicle: Klucel (hydroxypropylcellulose) (HPC) 107 % of control | dose: 4.5 mg/kg/injection, schedule: Q01DX005 (ip), vehicle: Klucel (hydroxypropylcellulose) (HPC) 104 % of control | dose: 9.0 mg/kg/injection, schedule: Q01DX005 (ip), vehicle: Klucel (hydroxypropylcellulose) (HPC) 97 % of control | dose: 18.0 mg/kg/injection, schedule: Q01DX005 (ip), vehicle: Klucel (hydroxypropylcellulose) (HPC) 96 % of control | dose: 36.0 mg/kg/injection, schedule: Q01DX005 (ip), vehicle: Klucel (hydroxypropylcellulose) (HPC) 124 % of control

CCCN1CCc2cccc3c2C1Cc1ccc(O)c(O)c1-3 (stereo not drawn)
inactive: [8] 121 % of control | dose: 50.0 mg/kg/injection, schedule: Q01DX009 (ip), vehicle: saline 113 % of control | [9] 109 % of control

CCCCCCCCCC(=O)c1ccc(O)c(O)c1O
inactive: dose: 100.0 mg/kg/injection, schedule: Q01DX009 (ip), vehicle: saline 100 % of control | dose: 200.0 mg/kg/injection, schedule: Q01DX009 (ip), vehicle: saline 105 % of control
